Test results published in patent publication US20240247048A1 (EMORY UNIVERSITY, priority 2021, published 2024).

System: tumor infiltrating T cells in KPC-Luc tumors
Experiment: analysis of tumor infiltrating T cells in subcutaneous KPC-Luc tumors (flow cytometry, Nanostring, TCR sequencing, tetramer)
Format: in vivo, mouse
Procedure: FIGS. 19A, 19B, 19C, 19D, 19E, 19F, 19G, 19H and 19I show increased T cell activation and reduced frequency of Tregs in KPC.Luc tumors treated with a combination of VIP-R antagonist and anti-PD-1. Subcutaneous KPC.Luc tumors in C57BL/6 mice treated with ANT008 and/or anti-PD-1 (n=5 per treatment group), were analyzed via flow cytometry 10 days after treatment for proportion of (FIG. 19A) CD4+ and (FIG. 19B) CD8+ T cells expressing Ki67, IFN gamma, IL-4, PD-1 and Tim-3. (FIG. 19C) Representative flow plots showing the gating strategy used to quantify CD25+FoxP3+ Tregs. (FIG. 19D) Percentage of Tregs in tumors of the different treatment groups (n=5 per treatment group). Volcano plot showing differential expression of genes in T cells from (FIG. 19E) ANT008+ isotype IgG (IgG) vs scrambled peptide (Scram)+ isotype IgG, (FIG. 19F) scrambled peptide+anti-PD-1 vs scrambled peptide+isotype IgG and (FIG. 19G) ANT008+anti-PD-1 vs scrambled peptide+isotype IgG (n=3 mice per treatment group). Horizontal black line represents false discovery rate (FDR)<0.1. […] (FIG. 19H) Heat map showing gene expression changes in genes associated with TCR activation and co-stimulation. (FIG. 19I) TCR activation and co-stimulation pathway score between the T cells in tumors of mice from the different treatment groups. Statistical differences in FIGS. 19A, 19B, 19D and 19I were calculated via ANOVA followed by Dunnett's post-test. Error bars show mean±SEM *p<0.05, **p<0.001, ***p<0.0001.
(FIG. 20A) Box and whiskers plot showing Shannon's Entropy in T cells of KPC.Luc tumors in each treatment group. (FIG. 20B) List showing TCR-0 amino acid sequences shared between samples of each treatment group and (FIG. 20C) the frequencies of the shared clones in each treatment group. Sequences are color coded to represent number of mice per group (n=4) that share the specific TCR-β clone. CD8+ in subcutaneous KPC.Luc tumors were stained with MuLV p15E-H2Kb tetramer after 10 days of treatment with ANT308 and/or anti-PD-1 (n=3 per treatment group) using the (FIG. 20D) gating strategy and (FIG. 20E) quantified. […] Statistical differences in a and e were calculated via ANOVA followed by Dunnett's post-test and in FIG. 20F and FIG. 20G were calculated using Log-rank test. […]
Increased T cell activation in tumors of mice treated with a combination of VIP-R antagonist and anti-PD-1. To investigate whether inhibiting VIP-R signaling promotes T cell activation in vivo, the study analyzed tumor infiltrating T cells in subcutaneous KPC-Luc tumors for differences in activation markers. […]

## KPRRPYTDNYTRLRKQMAVKKYLNLILN [ANT008]
>4-fold change, FDR<0.1, FIG. 19e-19g
  genes upregulated in TIL (Nanostring): no genes significantly upregulated
FIG. 19c, 19d
  frequency of Tregs within the PDAC tumors: significantly decreased
monotherapy, 10 days after treatment, FIG. 19a, 19b
  levels of PD-1+ Tim-3- T cells in CD4+ and CD8+ subsets: increased
n=4 per group, FIG. 20b
  number of clones shared by at least 2 samples among top 50 highest frequency TCR clones: 6
